Test results published in the NIST ThermoML archive (doi:10.1021/je0340755).
± gives the expanded uncertainty stated by the source.

Assay: xn = mol fraction of the nth substance listed
Conditions: 101.3 kPa, Liquid; for viscosity: Capillary tube (Ostwald / Ubbelohde) method

CC(O)CCO (stereo not given) [1,3-butanediol] + O
Conditions | mass density, 298.15 K [kg/m3] | mass density, 308.15 K [kg/m3] | mass density, 318.15 K [kg/m3] | speed of sound, 298.15 K [m/s] | speed of sound, 308.15 K [m/s] | speed of sound, 318.15 K [m/s] | viscosity, 298.15 K [mPa·s] | viscosity, 308.15 K [mPa·s] | viscosity, 318.15 K [mPa·s]
x2 = 0.045 | 1001 ± 0.35 | 995.14 ± 0.36 | 989.57 ± 0.37 | 1544.1 ± 6.4 | 1500.6 ± 6.2 | 1474.8 ± 6.1 | 92.65 ± 1 | 49.94 ± 0.24 | 28.95 ± 0.14
x2 = 0.1445 | 1003.36 ± 0.34 | 997.4 ± 0.34 | 991.66 ± 0.35 | 1569.1 ± 6.4 | 1520.3 ± 6.3 | 1492.5 ± 6.2 | 81.12 ± 0.7 | 43.43 ± 0.2 | 25.16 ± 0.13
x2 = 0.2499 | 1006.05 ± 0.33 | 999.97 ± 0.32 | 994.06 ± 0.33 | 1594.2 ± 6.5 | 1538.6 ± 6.3 | 1509.5 ± 6.2 | 67.64 ± 0.38 | 36.09 ± 0.17 | 20.85 ± 0.11
x2 = 0.3526 | 1008.62 ± 0.33 | 1002.45 ± 0.31 | 996.38 ± 0.32 | 1613.2 ± 6.6 | 1561.8 ± 6.4 | 1531.8 ± 6.3 | 54.19 ± 0.14 | 29.07 ± 0.14 | 16.64 ± 0.096
x2 = 0.4519 | 1011.07 ± 0.33 | 1004.84 ± 0.31 | 998.64 ± 0.3 | 1631.1 ± 6.6 | 1585.2 ± 6.5 | 1554.7 ± 6.4 | 41.72 ± 0.18 | 22.69 ± 0.12 | 12.79 ± 0.085
x2 = 0.5035 | 1012.39 ± 0.32 | 1006.14 ± 0.31 | 999.86 ± 0.29 | 1643.5 ± 6.7 | 1597 ± 6.5 | – | 35.66 ± 0.16 | 19.58 ± 0.1 | 10.94 ± 0.08
x2 = 0.5563 | 1013.79 ± 0.32 | 1007.52 ± 0.31 | – | 1652.1 ± 6.7 | 1609.3 ± 6.6 | – | 29.86 ± 0.14 | 16.57 ± 0.095 | 9.164 ± 0.076
x2 = 0.6507 | 1016.24 ± 0.32 | 1009.99 ± 0.3 | – | 1682 ± 6.8 | 1634.5 ± 6.6 | – | 20.66 ± 0.11 | 11.66 ± 0.081 | 6.346 ± 0.07
x2 = 0.7518 | 1017.77 ± 0.32 | 1011.69 ± 0.3 | – | 1702 ± 6.8 | 1666.3 ± 6.7 | – | 12.64 ± 0.083 | 7.207 ± 0.072 | 3.879 ± 0.066
x2 = 0.8477 | 1015.59 ± 0.31 | 1010.07 ± 0.29 | – | 1681.6 ± 6.8 | 1684 ± 6.8 | – | 6.82 ± 0.071 | 3.905 ± 0.066 | 2.11 ± 0.064
x2 = 0.9081 | 1010.74 ± 0.29 | 1005.92 ± 0.28 | – | 1673.4 ± 6.7 | 1665.1 ± 6.7 | – | 4.008 ± 0.066 | 2.337 ± 0.064 | 1.304 ± 0.063
x2 = 0.9152 | 1009.95 ± 0.29 | 1005.23 ± 0.27 | – | 1660.2 ± 6.7 | 1659.9 ± 6.7 | – | 3.719 ± 0.066 | 2.179 ± 0.064 | 1.226 ± 0.063
x2 = 0.9253 | 1008.73 ± 0.28 | 1004.18 ± 0.27 | – | 1645 ± 6.7 | 1657.3 ± 6.7 | – | 3.322 ± 0.065 | 1.965 ± 0.064 | 1.122 ± 0.063
x2 = 0.9355 | 1007.4 ± 0.28 | 1003.02 ± 0.27 | – | 1615.2 ± 6.6 | 1640.7 ± 6.6 | – | 2.937 ± 0.065 | 1.759 ± 0.064 | 1.024 ± 0.063
x2 = 0.9521 | 1005.03 ± 0.27 | 1000.96 ± 0.26 | – | 1610.8 ± 6.5 | 1619.1 ± 6.6 | – | 2.348 ± 0.064 | 1.45 ± 0.064 | 0.881 ± 0.063
x2 = 0.9543 | 1004.7 ± 0.27 | 1000.67 ± 0.26 | – | 1599.6 ± 6.5 | 1615.8 ± 6.6 | – | 2.273 ± 0.064 | 1.411 ± 0.064 | 0.864 ± 0.063
x2 = 0.9597 | 1003.86 ± 0.27 | 999.94 ± 0.26 | – | 1576.9 ± 6.4 | 1607.2 ± 6.5 | – | 2.093 ± 0.064 | 1.318 ± 0.063 | 0.824 ± 0.063
x2 = 0.9699 | 1002.22 ± 0.26 | 998.52 ± 0.26 | – | 1551.3 ± 6.4 | 1589 ± 6.5 | – | 1.765 ± 0.064 | 1.15 ± 0.063 | 0.753 ± 0.063
x2 = 0.9804 | 1000.46 ± 0.26 | 996.99 ± 0.26 | – | 1525.7 ± 6.3 | 1567.4 ± 6.4 | – | 1.444 ± 0.064 | 0.99 ± 0.063 | 0.69 ± 0.063
x2 = 0.9901 | 998.79 ± 0.26 | 995.53 ± 0.27 | – | 1519.4 ± 6.3 | 1544.6 ± 6.3 | – | 1.163 ± 0.063 | 0.851 ± 0.063 | 0.639 ± 0.063
x2 = 0.9924 | 998.38 ± 0.26 | 995.19 ± 0.27 | – | 1510.8 ± 6.2 | 1536.8 ± 6.3 | – | 1.098 ± 0.063 | 0.819 ± 0.063 | 0.628 ± 0.063
x2 = 0.9955 | 997.84 ± 0.26 | 994.71 ± 0.27 | – | 1527.6 ± 6.3 | 1530.7 ± 6.3 | – | 1.012 ± 0.063 | 0.778 ± 0.063 | 0.615 ± 0.063
